Measurements published in the NIST ThermoML archive (doi:10.1021/je0500330).

How the values were obtained:
[1] = refractive index (Na D-line) (dimensionless); conditions: 298.15 K; 101.33 kPa; Liquid; Standard Abbe refractometry
[2] = Liquid; for speed of sound / mass density: 298.15 K, 101.33 kPa; for speed of sound: Sing-around technique in a fixed-path interferometer; for mass density: Vibrating tube method
[3] = xn = mol fraction of the nth substance listed; conditions: 298.15 K, 101.3 kPa, Liquid
[4] = refractive index (Na D-line) (dimensionless); xn = mol fraction of the nth substance listed; conditions: 298.15 K, 101.3 kPa, Liquid

CO [methanol]
Conditions	mass density [kg/m3]	refractive index	speed of sound [m/s]
[1]	–	1.32667	–
[2]	787.14	–	1102

Conditions	vapor or sublimation pressure [kPa]
[2], 337.65 K	101.3

CCC(C)CO (centres undefined) [2-methyl-1-butanol] + CCO
Conditions	mass density, [3] [kg/m3]	refractive index, [4]	speed of sound, [3] [m/s]
x2 = 0.0486	814.11	1.40734	1247.7
x2 = 0.1013	813.23	1.40583	1245
x2 = 0.1523	812.31	1.40424	1241.4
x2 = 0.1987	811.39	1.40277	1237.6
x2 = 0.2503	810.38	1.40112	1233.6
x2 = 0.3004	809.33	1.39926	1229.6
x2 = 0.3486	808.22	1.39756	1225.3
x2 = 0.4003	807.02	1.39549	1221
x2 = 0.4502	805.74	1.39341	1215.9
x2 = 0.5004	804.41	1.3912	1210.5
x2 = 0.5502	803.01	1.38899	1205.4
x2 = 0.6004	801.43	1.38636	1199.4
x2 = 0.6503	799.81	1.38373	1193.1
x2 = 0.7	798.1	1.38109	1186.9
x2 = 0.8009	794.32	1.37475	1173
x2 = 0.8503	792.34	1.37134	1166
x2 = 0.9002	790.13	1.36758	1158.2
x2 = 0.9503	787.77	1.36358	1150.2

CCC(C)CO (centres undefined) [2-methyl-1-butanol]
Conditions	mass density [kg/m3]	refractive index	speed of sound [m/s]
[1]	–	1.40872	–
[2]	814.87	–	1253

[2]
Conditions	vapor or sublimation pressure [kPa]
401.58 K	101.3
401.86 K	101.3

CCC(C)CO (centres undefined) [2-methyl-1-butanol] + CO
Conditions	mass density, [3] [kg/m3]	refractive index, [4]	speed of sound, [3] [m/s]
x2 = 0.0485	814.3	1.40702	1250.7
x2 = 0.1016	813.63	1.40511	1246.7
x2 = 0.1543	812.9	1.40324	1242.6
x2 = 0.1987	812.22	1.40162	1238.7
x2 = 0.2528	811.35	1.39907	1233.9
x2 = 0.3017	810.5	1.39712	1229
x2 = 0.3496	809.49	1.39461	1223
x2 = 0.4005	808.36	1.39181	1217
x2 = 0.4506	807.25	1.38875	1210.7
x2 = 0.4987	806.12	1.38569	1204.2
x2 = 0.5502	804.84	1.38222	1197.2
x2 = 0.6003	803.4	1.37832	1188.8
x2 = 0.6487	801.91	1.37416	1180.7
x2 = 0.7003	800.27	1.36946	1171.5
x2 = 0.7504	798.44	1.3642	1162.7
x2 = 0.8002	796.5	1.35846	1151.4
x2 = 0.8503	794.35	1.35214	1142.2
x2 = 0.9004	791.96	1.34482	1131.5
x2 = 0.9503	789.39	1.33618	1120.5

CCO [ethanol]
Conditions	mass density [kg/m3]	refractive index	speed of sound [m/s]
[1]	–	1.35916	–
[2]	785.36	–	1143

Conditions	vapor or sublimation pressure [kPa]
[2], 351.5 K	101.3
